± gives the expanded uncertainty stated by the source.
Settings: 313.15 K; Liquid; Closed cell (Static) method

Compound: CC(C)CC(C)(C)C [2,2,4-trimethylpentane]
- vapor or sublimation pressure: 12.95 ± 0.031 kPa

Compound: CCCCO [butan-1-ol]
- vapor or sublimation pressure: 2.483 ± 0.015 kPa

Compound: C=CCCCC [hex-1-ene]
- vapor or sublimation pressure: 44.98 ± 0.2 kPa

— the NIST ThermoML archive (doi:10.1016/j.jct.2013.04.003)
